{"source": "patent US20220151979A1", "about": "“COMPOSITION FOR PREVENTION OR TREATMENT OF CARDIOVASCULAR AND METABOLIC DISEASE COMPRISING NORANHYDROICARITIN” (SEOUL NATIONAL UNIVERSITY HOSPITAL, priority 2019, published 2022)", "key": {"HepG2 cells": {"test_system": "HepG2 cells", "test": "MTT cell viability of HepG2 cells", "assay_type": "cell-based, human", "protocol": "In order to confirm the toxicity of noranhydroicaritin to cells, HepG2 cells (human liver hepatocellular carcinoma) were treated with each of kaempferol and noranhydroicaritin at various concentrations, and the cell viability of HepG2 cells at each concentration was calculated through the MTT screening method.\nSpecifically, HepG2 cells were suspended in DMEM (Welgene Inc.) medium containing 10% fetal bovine serum at a concentration of 1×10^5 cells/mL, and 100 μL thereof was inoculated into each well of a 96-well plate. After 4 hours, the HepG2 cells in the well plate were treated with each of kaempferol and noranhydroicaritin samples at concentrations of 2.5 μM, 5 μM, 10 μM, and 20 μM. After incubation for 24 hours, 5 μL of MTT (5 mg/mL) was added to the well plate, and the cells were further incubated for 4 hours. Thereafter, the medium was removed, 100 μL of DMSO was added to the well plate, the reaction was conducted, and then the absorbance was measured at 570 nm. As a control, cholesterol synthesis inhibitors atorvastatin (Ato) and rosuvastatin (Ros) were used. The cell viability was calculated according to the following mathematical formula as a value relative to 100% of the value for the negative control treated only with DMSO. The results are illustrated in FIG. 1. […]"}, "PCSK9 [1]": {"test_system": "PCSK9", "test": "Immunoblot of PCSK9 in HepG2 cells", "assay_type": "cell-based, human", "details": "HepG2 cells, 5, 10, 20 μM", "protocol": "In order to confirm the effect of noranhydroicaritin to inhibit PCSK9 expression and increase LDLR expression, immunoblotting targeting PCSK9 and LDLR was performed and the expression levels were compared. β-Actin was used as a control.\nIn a 100 mm Petri dish, 1×10^6 HepG2 cells were aliquoted and treated with noranhydroicaritin at various concentrations (5 μM, 10 μM, and 20 μM), and then the cells were removed from the cell-culture dish and homogenized using a protein extraction solution (NP40, ELPIS BIOTECH, Korea) containing a protease inhibitor cocktail (Roche).\nIn order to prepare the total protein, the cells were extracted in RIPA lysis buffer (50 mM Tris-HCl (pH 7.4), 150 mM NaCl, 5 mM EDTA, 5 mM EGTA, 5 mM sodium fluoride, 2 mM sodium orthovanadate, 1% NP-40, 0.1% sodium dodecyl sulfate [SDS], 1 mM phenylmethylsulfonyl fluoride [PMSF], and protein inhibitor cocktail [Roche Diagnostics, Heidelberg, Germany]). The protein concentration in the lysate was measured using the Bio-Rad dye-binding micro assay. For immunoblotting, 30 μg of cell lysate was isolated via SDS-polyacrylamide gel electrophoresis (PAGE). The proteins were transferred onto the Hybond-ECL nitrocellulose membrane (Amersham Biosciences, Buckinghamshire, UK). […] HRP-conjugated secondary antibodies were detected using an ECL detection reagent."}, "PCSK9 [2]": {"test_system": "PCSK9", "test": "Immunoblot of PCSK9 in HepG2 cells, noranhydroicaritin and statin singly or in combination", "assay_type": "cell-based, human", "details": "treated singly", "protocol": "The cells aliquoted by the method of Example 7 were treated with noranhydroicaritin or a statin (atorvastatin or rosuvastatin) singly or with noranhydroicaritin and a statin (atorvastatin or rosuvastatin) simultaneously, and the proteins were extracted. On an SDS-polyacrylamide gel, 30 μg of each protein was electrophoresed, and attached to a membrane, and then protein expression levels were confirmed using the respective antibodies: phospho-AMPK, PCSK9, LDLR, and PPARγ."}, "atherosclerotic plaque": {"test_system": "atherosclerotic plaque", "test": "Gross plaque imaging in PCSK9-injected mouse carotid-ligation arteriosclerosis model", "assay_type": "in vivo", "details": "AAV-PCSK9 virus, high-fat diet, 10 μg/g/day, 3 weeks after ligation, vehicle group about 45%", "protocol": "By ligation to the carotid artery of 6- to 8-week-old mice, mechanical stress was applied to induce inflammation, thrombosis, oxidative stress, and shear stress, and the function and structure of the external carotid (EC) were changed to prepare an atherosclerosis model (FIG. 13). Specifically, ligation was performed on the left common carotid artery (LCA) after abdominal anesthesia by performing carotid artery ligation on mice fed a high-fat diet for one week. Partial ligation of three branches in the LCA, the external carotid artery (ECA), the internal carotid artery (ICA), and the occipital artery (OA) was performed. At this time, ICA and OA were ligated, and ECA was ligated separately. In mice subjected to ligation, the amount of blood flow to the heart decreased and the direction of blood flow changed, whereby an atherosclerosis model was prepared. Carotid artery ligation was performed one week after injection of AAV-PCSK9 Virus (1×10^11 IFU/mL) and noranhydroicaritin (10 μg/g/day). After 3 weeks of ligation, it was confirmed whether the atherosclerosis model was completed, and gross plaque imaging and immunofluorescence were performed to confirm the arteriosclerosis inhibitory effect of noranhydroicaritin."}, "IL-1B": {"test_system": "IL-1B", "test": "Immunofluorescence of IL-1B in carotid artery, mouse arteriosclerosis model", "assay_type": "in vivo", "details": "10 μg/g/day", "protocol": "(§1) Carotid artery ligation was performed one week after injection of AAV-PCSK9 Virus (1×10^11 IFU/mL) and noranhydroicaritin (10 μg/g/day). After 3 weeks of ligation, it was confirmed whether the atherosclerosis model was completed, and gross plaque imaging and immunofluorescence were performed to confirm the arteriosclerosis inhibitory effect of noranhydroicaritin.\n(§2) Furthermore, the arteriosclerosis inhibitory effect of noranhydroicaritin was confirmed using immunofluorescence. Specifically, a mouse carotid artery was obtained and fixed in 4% PFA for one day, and then prepared into a block. As the inflammatory response in blood vessels progresses, the arteriosclerosis worsens, and thus the marker […] of macrophages causing arteriosclerotic inflammatory response and TNF-α, IL-1B, and MCP-1, which are pro-inflammatory cytokines secreted when the inflammatory response occurs, were stained. Staining was performed using the antibody for each of CAP1(1:200), PCSK9(1:100), F4/80(1:100), TNF-α(1:100), […], and MCP-1(1:100), then imaging was performed using a confocal microscope, and […] was evaluated."}, "PCSK9 [3]": {"test_system": "PCSK9", "test": "Immunofluorescence of PCSK9 in carotid artery, mouse arteriosclerosis model", "assay_type": "in vivo", "details": "10 μg/g/day, compared to control", "protocol": "as §1, §2"}}, "data": [{"smiles": "CC(C)=CCc1c(O)cc(O)c2c(=O)c(O)c(-c3ccc(O)cc3)oc12", "note": "[Noranhydroicaritin, noranhydroicaritin]", "values": [{"measurement": "cell viability", "setting": "HepG2 cells; 20 μM, 24 hours, MTT, relative to DMSO negative control", "value": "≥ 90", "unit": "%"}, {"measurement": "cell viability compared with control", "setting": "HepG2 cells; same concentration as atorvastatin or rosuvastatin", "value": "higher than the cell viability of the cells treated with atorvastatin or rosuvastatin"}, {"measurement": "PCSK9 expression (immunoblot)", "setting": "PCSK9 [1]", "value": "decreased in a concentration-dependent manner"}, {"measurement": "quantity of PCSK9 (immunoblot)", "setting": "PCSK9 [2]", "value": "decreased"}, {"measurement": "atherosclerotic plaque-formed area", "setting": "atherosclerotic plaque", "value": "about 20%"}, {"measurement": "expression of IL-1B (immunofluorescence)", "setting": "IL-1B", "value": "decreased"}, {"measurement": "expression of PCSK9 (immunofluorescence)", "setting": "PCSK9 [3]", "value": "significantly decreased"}]}]}
